# Literature values in patent publication US6458386B1, “Medicaments based on polymers composed of methacrylamide-modified gelatin” (Innogenetics N.V., priority 1997, dated 2002).
# Assays:
# large cutaneous burns = conditions: children
# chronic pressure ulcers = conditions: humans
# [1] = system: full thickness macular holes; conditions: human eyes
substance,measurement,setting,value
Human Growth Hormone: hormone,wound healing of large cutaneous burns,large cutaneous burns,accelerate wound healing
Platelet Derived Growth Factor,wound healing of chronic pressure ulcers,chronic pressure ulcers,wound healing stimulator
Transforming Growth Factor-β,effect in treatment of full thickness macular holes,[1],beneficial effects
